Assay results: paper PMC7017090, “Repaglinide Silences the FOXO3/Lumican Axis and Represses the Associated Metastatic Potential of Neuronal Cancer Cells” (Cells, 2019)

What was measured:
FOXO3 = FOXO3 (Homo sapiens, UniProt O43524); assay: fluorescence polarization displacement of IRE-FAM oligonucleotide from recombinant FOXO3-DBD (Ki calculated from IC50 […]); supported by FAM-EMSA; format: binding
FOXO3-DBD = FOXO3-DBD (human, UniProt O43524 156-269); assay: EMSA; 1 uM protein, 100 nM DNA; 'high affinity'; Not stated; FPA and FAM-EMSA as described in ref 24; conditions: protein: recombinant; blunt
Chain of FOXO3-DBD (O43524 156-269): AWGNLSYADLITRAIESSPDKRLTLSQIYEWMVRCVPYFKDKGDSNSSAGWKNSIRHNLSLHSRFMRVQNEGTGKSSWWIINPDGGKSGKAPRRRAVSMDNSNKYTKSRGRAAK

Chain of FOXO3 (O43524 156-269): as above

Row | Ki (FOXO3) [µM] | Molecule | binding result (FOXO3-DBD)
1 | 24.9 | CCOc1cc(CC(=O)N[C@@H](CC(C)C)c2ccccc2N2CCCCC2)ccc1C(=O)O [RPG, repaglinide] | 
2 |  | FoxP3 oligonucleotide (FAM) (dsDNA) DNA 1: AGCAAAGTTGTTTTTGATAATG DNA 2: CATTATCAAAAACAACTTTGCT | binds
